# Measured values from PubChem BioAssay (NCI).
# Several values for one entry are separate records, joined by “and”; a condition that tells them apart may be missing. Equal values may be shown once.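 These data come from cells grown in 96-well plates and exposed to compound for 48 hours at five concentrations. The concentration for 50% growth inhibition is given as GI50. The concentration for full growth arrest is given as TGI.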
# Tests used:
# Test in all cases: NCI anticancer screen, dose series, 48 h
# RXF 393 renal = tested on: RXF 393 renal
# HOP-92 NSCLC = tested on: HOP-92 NSCLC
# OVCAR-8 ovarian = tested on: OVCAR-8 ovarian
# CAKI-1 renal = tested on: CAKI-1 renal
# UACC-62 melanoma = tested on: UACC-62 melanoma
# HCT-116 colon = tested on: HCT-116 colon
# HL-60(TB) leukemia = tested on: HL-60(TB) leukemia
# HCT-15 colon = tested on: HCT-15 colon
# OVCAR-4 ovarian = tested on: OVCAR-4 ovarian
# K-562 leukemia = tested on: K-562 leukemia
Compound,TGI (RXF 393 renal),TGI (HOP-92 NSCLC),TGI (OVCAR-8 ovarian) [µM],TGI (CAKI-1 renal) [µM],TGI (UACC-62 melanoma) [µM],TGI (HCT-116 colon),TGI (HL-60(TB) leukemia) [µM],TGI (HCT-15 colon) [µM],TGI (OVCAR-4 ovarian) [µM],TGI (K-562 leukemia) [µM],GI50 (RXF 393 renal),GI50 (HOP-92 NSCLC),GI50 (OVCAR-8 ovarian),GI50 (CAKI-1 renal),GI50 (UACC-62 melanoma),GI50 (HCT-116 colon),GI50 (HL-60(TB) leukemia),GI50 (HCT-15 colon),GI50 (OVCAR-4 ovarian),GI50 (K-562 leukemia)
COc1ccccc1/C=C/c1cnccn1,> 10 µM,> 10 µM,> 10,> 10,> 10,> 10 µM,> 10,> 10,> 10,> 10,–,–,–,–,–,–,–,–,–,–
Nc1nc(Nc2ccccc2)c2ncn(Cc3cc4c(cc3Br)OCO4)c2n1,8.65 µM,20.7 µM,0.832,> 55.2,28.4,24.9 µM,1.26,5.48,55.1,> 39.9,0.0602 µM,0.0651 µM,0.17 µM,0.135 µM,0.0537 µM,0.046 µM,0.0358 µM,0.0416 µM,0.326 µM,0.0415 µM
O=C(Nc1cccc(Cl)c1)c1cc2ccccc2cc1O,> 100 µM and 14.5 µM,3.66 µM and 0.973 µM,> 100,> 100,> 100,> 100 µM and 21.1 µM,–,> 100,> 100,> 100,2.74 µM and 2.93 µM,0.41 µM and 0.306 µM,2.94 µM and 3.39 µM,2.1 µM and 1.51 µM,1.55 µM and 0.657 µM,1.68 µM and 0.828 µM,3.16 µM and 1.61 µM,2.38 µM and 2.36 µM,3.39 µM and 2.32 µM,1.38 µM and 0.888 µM
CC(=O)Oc1ccccc1C(=O)N=C1[Se]CCN1C(=O)c1ccccc1OC(C)=O,1.51 µM,3.58 µM,2.7,1.98,2.84,1.15 µM,8.47,–,7.24,> 100,0.355 µM,1.85 µM,0.637 µM,0.671 µM,1.04 µM,0.32 µM,0.708 µM,–,1.46 µM,0.94 µM
CC(C)c1ccccc1S(=O)c1ccccc1C(C)(C)O (stereo not drawn),> 100 µM,> 100 µM,> 100,> 100,> 100,> 100 µM,> 100,> 100,> 100,> 100,–,–,–,–,–,–,–,–,–,–
N#CC1(C2SCCS2=O)C2=C(C(=O)c3ccccc3C2=O)N2CCCC21 (stereo not drawn),10.9 µM,11.9 µM,7.83,15,6.54,5.56 µM,6.79,6.63,4.09,25.7,–,–,–,–,–,–,–,–,–,–
CC1=C(C(=O)Nc2c(C)cccc2C)C(c2ccccc2Cl)C(C(=O)Nc2c(C)cccc2C)=C(C)N1,> 100 µM,> 100 µM,> 100,> 100,–,–,> 100,–,> 100,> 100,–,–,–,–,–,–,–,–,–,–
O=C1CSC(Cc2nc3ccccc3[nH]2)=N1,33.1 µM,57.8 µM,74.9,31.4,37.7,27.6 µM,97.5,37.7,41.6,> 100,–,–,–,–,–,–,–,–,–,–
CCOC(=O)[C@H](CCCNC(=O)OC(C)(C)C)NCc1ccc(OC)c(OC)c1,> 100 µM,> 100 µM,> 100,> 100,> 100,> 100 µM,> 100,–,> 100,> 100,–,–,–,–,–,–,–,–,–,–
O=C(N/N=C\c1cc(Br)ccc1O)c1ccncc1,> 100 µM,45.4 µM,> 100,> 100,7.4,> 100 µM,5.57,> 100,33.3,> 100,1.89 µM,2.22 µM,1.38 µM,1.04 µM,1.45 µM,1.8 µM,1.28 µM,0.563 µM,0.814 µM,3.37 µM
COc1ccc(-n2cc(-c3ccc(Cl)c(Cl)c3)nc2SCc2cccc(C#N)c2)cc1,41 µM,40.3 µM,> 100,48.8,> 100,> 100 µM,> 100,> 100,> 100,> 100,13.6 µM,10.1 µM,18.6 µM,18 µM,19.1 µM,4.55 µM,> 100 µM,42.8 µM,11.9 µM,> 100 µM
O=C(/C=C/c1c(O)ccc2ccccc12)c1ccc2ccccc2c1,> 100 µM,> 100 µM,> 100,> 100,> 100,> 100 µM,> 100,> 100,> 100,> 100,–,–,–,–,–,–,–,–,–,–
O=C1/C(=C\c2cccn2Cc2ccccc2)c2ccccc2N1c1c(Cl)cccc1Cl,> 100 µM,28.8 µM,> 100,> 100,> 100,> 100 µM,> 100,> 100,> 60.4,> 100,> 100 µM,1.52 µM,> 100 µM,> 28.9 µM,3.28 µM,7.36 µM,> 100 µM,0.885 µM,0.196 µM,> 100 µM
NC(=O)C(=CNc1nc(-c2ccc(Cl)c(Cl)c2)cs1)C(N)=O,> 100 µM,> 100 µM,> 100,> 100,> 100,> 100 µM,> 100,> 100,> 100,> 100,> 100 µM,> 100 µM,80.7 µM,25.3 µM,> 100 µM,> 100 µM,42.8 µM,84.7 µM,62.4 µM,75.8 µM
OCCCCC#Cc1ccccc1C#Cc1cccc(O)c1,13.9 µM,40.7 µM,36.9,33.6,26.9,30 µM,41.9,27,32.1,40.4,2.3 µM,19.8 µM,18.2 µM,16.2 µM,13.3 µM,15.5 µM,19.4 µM,13.6 µM,16.1 µM,19.2 µM
